Test results reported in patent US20250011881A1, “MYC-HSF1 DUAL AMPLIFICATION AS A BIOMARKER FOR CANCER TREATMENT” (The Trustees of Indiana University, priority 2023, published 2025).
Where “and” joins values, the source holds several entries; their conditions need not be identical. Equal values may be shown once. Where a name gives a salt, the structure may show the parent alone.

The compounds below were run on ovarian cancer cells with (OVCAR8, OVCAR4) or without (OVSAHO, CAOV3) MYC-HSF1 amplification (assay: Epigenetic inhibitor drug screen, cell viability (Cell Titer Blue)). Conditions: not given.
Format: cell-based

Compound	Non Amp - AMP (POC) 10 uM [POC]
Ginkgolide C	−1.319
CN(C)CCCn1cc(C2=C(c3c[nH]c4ccccc34)C(=O)NC2=O)c2ccccc21 [GF 109203X]	3.766
Sodium Phenylbutyrate	−19.07
Oxamflatin	24.33
O=C(O)CNC(=O)C1C(=O)N(C2CCCCC2)C(=O)N(C2CCCCC2)C1=O [Daprodustat(GSK1278863), Daprodustat]	0.9715
Cl.Cl.c1cc(-c2cnn3cc(-c4ccc(OCCN5CCCCC5)cc4)cnc23)ccn1 [Dorsomorphin 2HCl]	15.62
CCCC(=O)[O-].[Na+] [Sodium butyrate]	−0.4466

Same assay, conditions: 10 uM, 48 hrs; average relative cell viability (vs 1% DMSO) of non-amplified cells (OVSAHO, CAOV3) minus that of MYC-HSF1 amplified cells (OVCAR8, OVCAR4); positive = greater response in amplified cells

Compound	Non Amp - AMP (POC) 10 uM [POC]
O=C(CCCCCCNC(=O)c1cnc(N(c2ccccc2)c2ccccc2Cl)nc1)NO [ACY-241]	35.17
C=C(C)[C@@H](CC=C(C)C)C[C@@]12C[C@@H](CC=C(C)C)C(C)(C)[C@@](CC=C(C)C)(C(=O)C(C(=O)c3ccc(O)c(O)c3)=C1O)C2=O [Garcinol]	6.401
CN[C@@H]1C[C@H]2O[C@@](C)([C@@H]1OC)n1c3ccccc3c3c4c(c5c6ccccc6n2c5c31)C(=O)NC4 [Staurosporine]	7.23
COc1cc2c(NC3CCN(C(C)C)CC3)nc(C3CCCCC3)nc2cc1OCCCN1CCCC1 [UNC0638]	−12.13
N#Cc1c(O)c2c(-c3ccc(-c4ccccc4O)cc3)csc2[nH]c1=O [A-769662]	−2.694
N#Cc1ccc(COc2ccc(-c3cccc4nc(NC(=O)C5CC5)nn34)cc2)cn1 [GLPG0634 analogue]	−7.702
CC(=O)SCC(=O)c1ccc(NS(=O)(=O)c2ccc(OCCCN(C)C)cc2)nc1 [KD 5170]	12.43
CCn1c(-c2nonc2N)nc2c(C#CC(C)(C)O)ncc(OC[C@H]3CCCNC3)c21 [GSK690693]	−7.029
N[C@@H]1CCCN(c2c(/C=C3\SC(=O)NC3=O)cccc2-c2ccccc2)C1 [AZD1208]	10.38
COc1cc(C#N)ccc1S(=O)(=O)Nc1ccc2c(c1)cc(C)c(=O)n2C [NI-57]	11.2
N#C/C(=C/c1ccc(O)c(O)c1)C(=O)NCc1ccccc1 [AG-490]	−10.83
CN(C)CC(=O)Nc1ccc2[nH]c(=O)c3ccccc3c2c1.Cl [PJ34 hydrochloride]	3.696
Cc1noc(C)c1-c1ccc(-c2nc3cnccn3c2NC(C)(C)C)cc1 [UMB-32]	−3.692
CCC(=O)Nc1cccc(Oc2nc(Nc3ccc(N4CCN(C)CC4)cc3OC)ncc2Cl)c1 [WZ4003]	−24.51
Nc1nc(Nc2ccc(S(N)(=O)=O)cc2)nn1C(=O)c1c(F)cccc1F [JNJ-7706621]	−15.24
N#Cc1ccc(OC2CCC(NC(=O)CCSc3nc4ccccc4c(=O)[nH]3)CC2)cc1 (stereo not drawn) [Tankyrase Inhibitors (TNKS) 49]	−7.406
COC(=O)c1ccc(N2CCN(C)CC2)c(NC(=O)c2cccc(OC)c2)c1 [WDR5 0103]	1.921
Nc1nc(OCc2cc(Br)cs2)c2[nH]cnc2n1 [Lomeguatrib]	9.851
CC(=O)N1c2ccc(-c3ccc(C(=O)O)cc3)cc2[C@H](Nc2ccc(Cl)cc2)C[C@@H]1C [GSK1324726A]	0.1295
CN1CCc2c(c3ccccc3n2Cc2ccc(C(=O)NO)cc2)C1.Cl [Tubastatin A HCl]	19.35
COC(=O)CNC(=O)C(=O)OC [DMOG]	−8.654
Nc1ncnc2c1ncn2[C@@H]1O[C@H](C[C@@H](N)CC[C@H](N)C(=O)O)[C@@H](O)[C@H]1O [Sirefungin]	12.42

Compound	Non Amp - AMP (POC) 10 uM [POC]
CN(C)c1ccc(C(=O)NCCCCCCC(=O)NO)cc1 [M344]	22.65
C[C@@H]1CC(=O)Nc2cccc(-c3ccc4c(c3)c(-c3cnn(C)c3)nn4C)c2N1 [CPI-637]	−2.546
CC(C)[C@H](C(=O)Nc1ccc(C(=O)NO)cc1)c1ccccc1 [AR-42 (OSU-HDAC42)]	−6.14
COc1cccc2c1C(=O)c1c(O)c3c(c(O)c1C2=O)C[C@@](O)(C(=O)CO)C[C@@H]3O[C@H]1C[C@H](N)[C@H](O[C@@H]2CCCCO2)[C@H](C)O1 [Pirarubicin]	6.408
CC1=CC(=O)c2c(O)cccc2C1=O [Plumbagin]	4.102
CC1COc2c(N3CCN(C)CC3)c(F)cc3c(=O)c(C(=O)O)cn1c23 (stereo not drawn) [Ofloxacin]	5.913
CN1CCC(CNc2ccc3ncc(-c4cccc(OC(F)(F)F)c4)n3n2)CC1 [SGI-1776 free base]	−17.37
O=C(c1cccc(Cl)c1F)N1CCN(Cc2cccc(Nc3nccs3)n2)CC1 [MK-8745]	10.66
CCCC(CCC)C(=O)[O-].[Na+] [Valproic acid sodium salt]	−19.36
Cc1cc(C)c(CNC(=O)c2cc(-c3ccc(N4CCN(C)CC4)nc3)cc3c2c(C)cn3C(C)C)c(=O)[nH]1 [GSK503]	−0.09843
COc1cc(C(=O)N2CC[C@@H](O)[C@@H](N)C2)cc2nc(-c3cc4ccccc4n3CC3CC3)n(C)c12.Cl [GSK484 (hydrochloride)]	0.3153
Cn1c2ccccc2c2c3c(c4c5ccccc5n(CCC#N)c4c21)CNC3=O [Go 6976]	5.045
O=C(Nc1ccc(-c2ccnc(Nc3ccc(N4CCOCC4)cc3)n2)cc1)C1CCCN1 (stereo not drawn) [XL019]	−14.18
Cc1cc(C)nc(SCC(=O)Nc2ncc(Cc3cccc4ccccc34)s2)n1 [SirReal2]	−3.472
CS(=O)(=O)c1ccc(-c2cnc(NCc3ccco3)n3cnnc23)cc1 [EED226]	32.64
CCS(=O)(=O)N1CCN(c2ccc(Nc3ncc(C(N)=O)c(NC4CC4)n3)cc2)CC1 [Cerdulatinib (PRT062070), Cerdulatinib]	−1.406
CCN(CC)CCNC(=O)c1ccc(N)cc1 [Procainamide HCl]	4.095
Inauhzin	−0.3441
O=c1[nH]cnc2c1ncn2[C@@H]1O[C@H](CO)[C@@H](O)[C@H]1O [INO-1001]	−1.319
c1cc(-c2cnn3cc(-c4ccc(OCCN5CCCCC5)cc4)cnc23)ccn1 [Dorsomorphin (Compourd C), Dorsomorphin]	7.913
Cc1nc(Nc2cnn(C3CCNCC3)c2)nc2c1N(C)C(=O)c1cc3ccccc3cc1N2C [HTH-01-015]	−3.924
COC1CCN(C(=O)c2cc(Cc3n[nH]c(=O)c4ccccc34)ccc2F)CC1 [AZD2461]	9.593

Same assay, conditions: 10 uM, 48 hrs; average relative cell viability (vs 1% DMSO) of non-amplified cells (OVSAHO, CAOV3) minus that of MYC-HSF1 amplified cells (OVCAR8, OVCAR4); positive = greater response in amplified cells; 10 µM

Compound	Non Amp - AMP (POC) 10 uM
COc1ccccc1C(=O)Nc1cc2c(cc1N1CCCC1)n(C)c(=O)n2C [PFI-4]	17.43 POC
Fc1cc(-c2cccc3ncc(-c4cnn(C5CCNCC5)c4)nc23)cc(F)c1CN1CCOCC1 [NVP-BSK805 2HCl]	−12.67 POC
Nc1nc2nc[nH]c2c(=S)[nH]1 [6-Thioguanine]	12.09 POC
Nc1ccn([C@@H]2O[C@H](CO)[C@@H](O)C2(F)F)c(=O)n1 [Gemcitabine]	28.61 POC
CC(C)C(=O)SCCCCCCC(=O)Nc1nc(-c2ccccc2)cs1 [NCH-51]	27.52 POC
O=C(O)C(Cc1c[nH]c2ccccc12)N1C(=O)c2ccccc2C1=O (stereo not drawn) [RG108]	17.36 POC
CCNC(=O)C[C@@H]1N=C(c2ccc(Cl)cc2)c2cc(OC)ccc2-n2c(C)nnc21 [I-BET-762]	5.52 POC
N#CC[C@H](C1CCCC1)n1cc(-c2ncnc3[nH]ccc23)cn1 [Ruxolitinib (INCB018424), Ruxolitinib]	−4.311 POC
CCCCc1nc2cc(/C=C/C(=O)NO)ccc2n1CCN(CC)CC [SB939, Pracinostat]	42.19 POC
CCCc1cc2c(N3CCN(C4=NCC(C)(C)S4)CC3)ncnc2s1 [MI-2 (hydrochloride)]	6.017 POC
Nc1ccccc1NC(=O)CCCCCCC(=O)Nc1ccccc1 [BML-210]	30.7 POC
O=C(CCCCCN1C(=O)c2cccc3cccc(c23)C1=O)NO [Scriptaid]	45.24 POC and 29.99 POC

Same assay, conditions: 10 uM, 48 hrs; average relative cell viability (vs 1% DMSO) of non-amplified cells (OVSAHO, CAOV3) minus that of MYC-HSF1 amplified cells (OVCAR8, OVCAR4); positive = greater response in amplified cells; listed as BML-210(CAY10433), 10 µM

Compound	Non Amp - AMP (POC) 10 uM [POC]
Nc1ccccc1NC(=O)CCCCCCC(=O)Nc1ccccc1 [BML-210]	14.33

Same assay, conditions: 10 uM, 48 hrs; average relative cell viability (vs 1% DMSO) of non-amplified cells (OVSAHO, CAOV3) minus that of MYC-HSF1 amplified cells (OVCAR8, OVCAR4); positive = greater response in amplified cells; listed as I-BET762, 10 µM

Compound	Non Amp - AMP (POC) 10 uM [POC]
CCNC(=O)C[C@@H]1N=C(c2ccc(Cl)cc2)c2cc(OC)ccc2-n2c(C)nnc21 [I-BET-762]	−1.572

Same assay, conditions: 10 uM, 48 hrs; average relative cell viability (vs 1% DMSO) of non-amplified cells (OVSAHO, CAOV3) minus that of MYC-HSF1 amplified cells (OVCAR8, OVCAR4); positive = greater response in amplified cells; listed as NCH 51, 10 µM

Compound	Non Amp - AMP (POC) 10 uM [POC]
CC(C)C(=O)SCCCCCCC(=O)Nc1nc(-c2ccccc2)cs1 [NCH-51]	9.119

Same assay, conditions: 10 uM, 48 hrs; average relative cell viability (vs 1% DMSO) of non-amplified cells (OVSAHO, CAOV3) minus that of MYC-HSF1 amplified cells (OVCAR8, OVCAR4); positive = greater response in amplified cells; listed as PFI 4, 10 µM

Compound	Non Amp - AMP (POC) 10 uM [POC]
COc1ccccc1C(=O)Nc1cc2c(cc1N1CCCC1)n(C)c(=O)n2C [PFI-4]	−0.5403

Same assay, conditions: 10 uM, 48 hrs; average relative cell viability (vs 1% DMSO) of non-amplified cells (OVSAHO, CAOV3) minus that of MYC-HSF1 amplified cells (OVCAR8, OVCAR4); positive = greater response in amplified cells; listed as Pracinostat (SB939), 10 µM

Compound	Non Amp - AMP (POC) 10 uM [POC]
CCCCc1nc2cc(/C=C/C(=O)NO)ccc2n1CCN(CC)CC [SB939, Pracinostat]	22.93

Same assay, conditions: 10 uM, 48 hrs; average relative cell viability (vs 1% DMSO) of non-amplified cells (OVSAHO, CAOV3) minus that of MYC-HSF1 amplified cells (OVCAR8, OVCAR4); positive = greater response in amplified cells; listed as RG 108, 10 µM

Compound	Non Amp - AMP (POC) 10 uM [POC]
O=C(O)C(Cc1c[nH]c2ccccc12)N1C(=O)c2ccccc2C1=O (stereo not drawn) [RG108]	−2.615
